Details of data set [1]: method as in PMID 17047689. The note with it: cited from earlier work.
On the set-up of data set [2]: method as in PMID 19629709. To be noted: cited from earlier work.
Data set [3] concerns IL-6. Kind of data set: IL-6 level in medium of LPS-induced RAW264.7 cells (ELISA). Type of data set: cell-based, mouse. To be noted: 10 μM compound (Figure 2A-C). The source says: (§1) When inflammation occurs, LPS-activated macrophages produce a variety of inflammatory cytokines, including TNF-α, interleukins (ILs), and nitric oxide (NO), which show a host shielding effect and also accelerate the occurrence of the inflammatory response during inflammatory situations. To evaluate the anti-inflammatory activity of hesperetin derivatives, the levels of TNF-α, IL-6 and IL-1β in the medium of LPS-induced macrophage cells were detected by enzyme linked immunosorbent assay (ELISA). […] Later, we will select one of them as lead compound and modify the structure at the 3’-OH, 5-OH and 4-carbonyl positions. […] Compounds 4d (MW = 401) and 4k (MW = 427) have similar structures and should have the same mechanism. Therefore, compound 4d with lower molecular weight was selected to further explore the mechanism(s) of the anti-inflammatory effect.
(§2) RAW264.7 cells (2 × 10^5 cells/well) were cultured in 24-well plate and pretreated with 10 μM of compounds for 1 h. And then stimulated with LPS, […], for 24 h. The cell culture supernatant were collected and the levels of TNF-α, IL-6 and IL-1β were determined using the ELISA kit (Elabscience, Wuhan, China). The optical density (OD) was measured at 540 nm. The results were analyzed using Origin Pro 8 (OriginLab, Northampton, MA, USA).

Data set [4] concerns LPS-induced NO production in RAW264.7 cells. Kind of data set: Inhibition of LPS-induced NO production (Griess reagent). In kind it is cell-based, mouse. To be noted: for LPS-induced NO release: LPS-stimulated, result in words; for IC50: Mus musculus, 1 h pretreatment, then LPS 24 h, mean ± SD (n = 3). As for the experimental part:
NO is an important inflammatory mediator and is overproduced and secreted out of mouse macrophages in response to bacterial lipopolysaccharide. To evaluate the anti-inflammatory activity of hesperetin derivatives, the secretion level of NO was detected in the medium of RAW264.7 cells after LPS stimulated with Griess reagent. Before the cells were treated with LPS (1 μg/mL) for 24 h, pretreatment with the compounds for 1 hour. […] All hesperetin derivatives could decrease the release of NO induced by LPS. […] While extended the length of the amide side chain and the inhibitory activities increased (4d > 4c > 4a; 4e > 4b). […] On the other hand, the cavity was medium-sized, large enough to accommodate cyclopentyl and propyl groups, but not enough to accommodate cyclohexyl and butyl ones (4a < 4b < 4d > 4f; 4k > 4l).
Nitrite levels were determined using the Griess method for NO has a short half-life and is oxidized to stable nitrite. RAW 264.7 cells were plated at a density of 2 × 10^5 per well in a 24-well culture plate and incubated in a 37 °C humidified incubator (5% CO2). After overnight Cultured, discarded the supernatant, added pre-configured compounds of different concentrations to the 24-well plate, and added the same one-thousandth of the DMSO solvent as the control to the experimental group for 1 h. Then LPS was added to experimental and model groups at a concentration of […] for 24 h compared to vehicle control. Following treatment, media was collected and centrifuged at 2000 rpm for 5 min to remove cellular debris. The medium from treated cells was removed and placed into a 96-well plate (50 µL per well) and was measured in culture supernatant using Griess reagent at 540 nm. The IC50 values of compounds were calculated by SPSS23.
For orientation: The Griess reaction detects nitrite, a stable product of nitric oxide.

Data set [5] concerns IL-1β. Kind of data set: IL-1β level in medium of LPS-induced RAW264.7 cells (ELISA). The note with it: 10 μM compound (Figure 2A-C). In kind it is cell-based, mouse.
Text: as §1, §2
A general note: In an ELISA, binding on a coated surface is turned into a signal by an enzyme label.

Data set [6] deals with TNF-α. Kind of data set: TNF-α level in medium of LPS-induced RAW264.7 cells (ELISA). In kind it is cell-based, mouse. The note with it: 10 μM compound (Figure 2A-C).
Text: as §1, §2

Data set [7] concerns LPS-induced NO production in RAW264.7 cells. The data set can be described thus: Inhibition of LPS-induced NO production (Griess reagent). In kind it is cell-based. The note with it: Mus musculus, 10 μM compound, 1 h pretreatment, then LPS (1 μg/mL) 24 h, mean ± SD (n = 3).
The test system of data set [8] is NF-κB signal pathway. Kind of data set: Western blotting of NF-κB signal pathway in LPS-induced RAW264.7 cells. In kind it is cell-based, mouse. The source says: Stimulation with LPS leads to the activation of nuclear factor-kappa B (NF-κB), which is a well-known transcription factor that positively regulates inflammation. When NF-κB activation is stimulated by LPS, inhibitor of NF-κB (IκB) protein phosphorylated and degraded frees NF-κB p65 subunit from sequestration, allowing it to translocate to the nucleus, bind to target promoters, and turn on the transcriptions of inflammation genes including TNF-α and IL-6. Therefore, Western blotting was used to examine the effects of compound 4d on LPS induced transcriptional activity of NF-κB in RAW264.7 cells.
After the treatment with LPS ([…]) in the presence different concentration gradient or absence of compounds, removed culture supernatants, and cells were collected and lysed with RIPA lysis buffer (Beyotime, Shanghai, China) and phosphatase inhibitors (Beibokit, Bestbio, Shanghai, China). After centrifugation (4 °C, 30 min, 12,000 rpm, Beckman Coulter, Inc., Fullerton, CA, USA), the total protein concentration was determined using BCA Protein Assay Kit (Beyotime, Shanghai, China). Lysates containing […] of total proteins were fractionated on SDS polyacrylamide gel and transferred to a polyvinylidene difluoride membranes (PVDF) (Merck Millipore, Tullagreen Carrigtwohill, Ireland). Membranes were blocked with 5% skim milk or 3% BSA (Albumin Bovine V, Sigma) in TBST and incubated at 4 °C overnight with their respective primary antibody: β-actin (1:1000 dilution; Abcam, Cambridge, MA, USA), iNOS (1:1000 dilution; Abcam, Cambridge, MA, USA), COX-2 (1:1000 dilution; CST, Danvers, MA, USA ), NF-κB (1:1000 dilution; CST, Danvers, MA, USA). After washing three times with TBST, membranes were incubated with secondary antibody for 1 h in room temperature on the shaker. Protein bands were visualized by the ultra-sensitive enhanced chemiluminescent (ECL) substrate (ECL-plus, Thermo Scientific, Rockford, IL, USA), after washing three times with TBST [34].
In general terms: A western blot detects proteins with antibodies after separation by electrophoresis.

The test system of data set [9] is iNOS. The data set can be described thus: Western blotting of iNOS expression in LPS-induced RAW264.7 cells. The note with it: LPS 24 h, compound 5, 10, 20 μM (Figure 3). In kind it is cell-based, mouse. As for the experimental part: (§3) In the process of inflammation, inducible nitric oxide synthase enzymes (iNOS) are induced to overexpression in inflammatory cells when exposed to pro-inflammatory cytokines, which further leads to excessive production of NO. The inhibition of NO production by compound 4d may be correlated with its suppressive effect on LPS-induced iNOS. Thus, the inhibitory effects of compound 4d on LPS-mediated expressions of iNOS were analyzed by western blotting. Nitric oxide synthase (iNOS) protein levels were analyzed after exposure to LPS for 24 h in the presence or absence of compound 4d (5, 10, 20 μM). […] Cyclooxygenase-2 (COX-2) is an important indicator of anti-inflammatory inhibitors, maintaining a low level in normal tissues. […] Bay 11-7082 (5 μM) used as a positive control.
(§4) After the treatment with LPS ([…]) in the presence different concentration gradient or absence of compounds, removed culture supernatants, and cells were collected and lysed with RIPA lysis buffer (Beyotime, Shanghai, China) and phosphatase inhibitors (Beibokit, Bestbio, Shanghai, China). After centrifugation (4 °C, 30 min, 12,000 rpm, Beckman Coulter, Inc., Fullerton, CA, USA), the total protein concentration was determined using BCA Protein Assay Kit (Beyotime, Shanghai, China). […]

The subject of data set [10] is RAW264.7 cells. The data set can be described thus: MTT cell viability / cytotoxicity assay. In kind it is cell-based, mouse. The note with it: concentrations up to 100 μM, MTT (Figure 1). As to the method:
Compounds 4a–4l, 5a–5b, 6a–6f, 7a–7c were assessed for toxicity against RAW264.7 cell lines using the 3-(4,5-dimethylthiazol-2-yl)-2,5-diphenyltetrazolium bromide (MTT) assay. After 40 μM treatment, the cell viability of all of the hesperetin derivatives was more than 90%. It was thus shown that the anti-inflammatory activities of hesperetin derivatives were not due to their cytotoxicity. In subsequent anti-inflammation studies, the highest concentration of hesperetin derivatives was set below 40 µM.
Cytotoxicity and cell viability was evaluated by a MTT (Sigma, Shanghai, China) assay using a method similar to the one described above. Cells were inoculated at a density of 7.0 × 10^3 cells/well into 96-well plate and cultured at 37 °C for 12 h. […] After that, MTT dissolved in phosphate buffered saline (PBS) and was added to the culture medium to reach a final concentration of 0.5 mg/mL and incubated for another 4 h. The media was removed and 200 μL of DMSO was added and incubated for 30 min. Finally, the cell viability (%) was calculated based on the absorbance measured at the wavelength of 490 nm and measured using a microplate reader (Synergy HTX, Biotek, Winowski, VT, USA). The cell viability were calculated by GraphPad Prism 6 (GraphPad, San Diego, CA, USA).

Data set [11] has as its system COX-2. The data set can be described thus: Western blotting of COX-2 expression in LPS-induced RAW264.7 cells. To be noted: compound 5, 10, 20 μM (Figure 3). In kind it is cell-based, mouse. As for the experimental part: as §3, §4

Read-outs that look alike come from different tables or passages of the source.

As for `COc1ccc([C@@H]2CC(=O)c3c(O)cc(O)cc3O2)cc1O` [hesperetin], the “elimination half-life (t1/2)” value in data set [1] is 1.78 h; in data set [2] it was 3.12 h.

A word on the IC50: it is the concentration needed to halve the response being measured. The term inhibition denotes how much of the control response was suppressed. A word on the melting point: it is the temperature, or range, at which the solid turns liquid. With `COc1ccc([C@@H]2CC(=O)c3c(O)cc(OCC(=O)NC4CCCC4)cc3O2)cc1O` [Compound 4k, 7-O-(2-(Cyclopentylamino)-2-oxoethyl)hesperetin], the melting point is 187.5 to 190 °C. In addition, the “inhibitory effect on IL-6 production” value in data set [3] is “greater inhibitory effects than indomethacin (Ind) and celecoxib (Cel)”. In [4], the “LPS-induced NO release” value is listed as “significantly alleviated the increase of LPS-induced NO release” and the IC50 came out at 16.6 ± 0.85 µM. In data set [5], the “inhibitory effect on IL-1β production” value was “greater inhibitory effects than indomethacin (Ind) and celecoxib (Cel)”. In data set [6], the “inhibitory effect on TNF-α production” value is “greater inhibitory effects than indomethacin (Ind) and celecoxib (Cel)”. Further, the inhibition at 10 µM in [7] was determined as 40.9 ± 0.64%.

Molecule `CCCNC(=O)COc1cc(O)c2c(c1)O[C@H](c1ccc(OC)c(O)c1)CC2=O` [Compound 4d, 7-O-(2-(Propylamino)-2-oxoethyl)hesperetin] returned a melting point of 135.5 to 137.7 °C. In data set [3], the “inhibitory effect on IL-6 production” value is “greater inhibitory effects than indomethacin (Ind) and celecoxib (Cel)”. In addition, in data set [4], the “LPS-induced NO release” value is reported as “significantly alleviated the increase of LPS-induced NO release” and the IC50 is 19.3 ± 0.47 µM. In addition, the “phosphorylation of IκBα” value in data set [8] (LPS-induced RAW264.7 cells (Figure 4)) is “markedly decreased”. Besides, the “protein expressions of NF-κB and IκBα” value in data set [8] (LPS-induced RAW264.7 cells, compared with the LPS induced group (Figure 4)) is on record as “down-regulated”. The “LPS-induced NF-κB p65 nuclear translocation” value in [8] (RAW264.7 cells, pretreatment 5, 10, 20 µM) is on record as “concentration-dependently reversed”. Further, the “inhibitory effect on IL-1β production” value in [5] is “greater inhibitory effects than indomethacin (Ind) and celecoxib (Cel)”. Further, the “expression level of iNOS” value in data set [9] was “significantly decreased the expression level of iNOS induced by LPS in a dose-dependent manner”. In addition, the “inhibitory effect on TNF-α production” value in data set [6] was “greater inhibitory effects than indomethacin (Ind) and celecoxib (Cel)”. The inhibition at 10 µM in data set [7] was determined as 38.2 ± 1.13%. In addition, in data set [10], the cytotoxicity entry was “no significant cytotoxicity”. For the same molecule, the “expression level of COX-2” value in data set [11] is listed as “capable of reducing the expression level of COX-2 in a concentration-dependent way”.
